Data: PubChem BioAssay AID179 (DTP/NCI, 2004)
Where “and” joins values, the source holds several entries; their conditions need not be identical. Equal entries are not always repeated. Calls of active or inactive are those of the source.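 Rule for the calls: active = compounds giving half or more protection of infected cells from virus-caused growth loss, again on retest; inactive = the rest.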 Where a SMILES comes first, the peptide text is derived from it. [ ]: non-standard residue; d: D form. The star is where a group is joined. Ac5c = NC1(C(=O)O)CCCC1; Boc = CC(C)(C)OC(=O)*; tBu = CC(C)(C)*

System: CEM cells HIV-1 protection, formazan growth assay
Assay: NCI AIDS Antiviral Assay
Conditions: for IC50: measured here: growth of uninfected CEM cells
Summary of the method: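 Five concentrations of each compound were applied to infected and uninfected human CEM cells. Protection from HIV-1 was judged from growth measured with a soluble formazan assay.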

| Compound | EC50 [µM] | IC50 | outcome |
| --- | --- | --- | --- |
| CC1CCCc2c(-c3ccc(Cl)cc3)nc(N)c(C#N)c21 (stereo not given) | > 200 | 26.3 µM | – |
| CC[N+](CC)(CCNCC(N)=O)CC(N)=O | > 200 | > 200 µM | – |
| COc1ccccc1/C=C(\C#N)C(=O)c1ccccc1 | > 20 | > 20 µM | – |
| CCOC(=O)C1=C(C)N(c2ccc(C)cc2)C2=C(C(=O)N(c3ccccc3)C2c2ccccc2)C1c1ccccc1 (stereo not given) | > 5.01 | > 5.01 µM | – |
| N=c1n(CC(=O)NC23CC4CC(CC(C4)C2)C3)c2ccccc2n1Cc1ccccc1 | > 79.4 | 14.1 µM | – |
| Cn1c(-c2ccccc2)cc2c3ccsc3c3ccsc3c21 | > 200 | 45.7 µM | – |
| COC(=O)C(Cc1c(-c2[nH]c3ccccc3c2CC(NC(C)=O)C(=O)OC)[nH]c2ccccc12)NC(C)=O (stereo not given) | > 200 | > 200 µM | – |
| CCCC(O)CNCc1ccc(N(C)C)cc1 (stereo not given) | – | – | inactive |
| C1SSCC2=C1CSSC2 | > 13.2 | > 13.2 µM | – |
| Brc1ccc2noc(-c3ccccc3)c2c1 | > 7.24 | > 7.24 µM | – |
| CC(=O)NNc1nc(C)c(C(/C=C/c2ccc(Cl)cc2)=N/NC(=S)NN)s1 | > 44.7 | > 44.7 µM | – |
| COC(=O)c1ccc(OCc2nc3ccccc3[nH]2)cc1 | > 200 | 75.9 µM | – |
| O=C(CCc1cccc(O)c1)NCCCNC(=O)CCc1cccc(O)c1 | > 200 | > 200 µM | – |
| CCN(CC)c1c(C(=O)/C=C/c2ccccc2)c(-c2ccccc2)nn(C)c1=O | > 18.6 | 9.12 µM | – |
| O=C(c1ccccc1)C(c1ccccc1)C1(O)C(=O)Nc2c(Cl)ccc(Cl)c21 (stereo not given) | > 17.4 | > 17.4 µM | – |
| CCCCCCCCCCCc1noc2c1C(=O)CCC2 | > 24.5 | > 24.5 µM | – |
| C=C(C)C1CC=C(C)[C@](O)(C2(O)C[C@H](C(=C)C)CC=C2C)C1 (stereo not given in full) | – | – | inactive |
| CC(C)(C)OC[C@H]1N([C@H](COCc2ccccc2)c2ccccc2)C(=O)C1(C)C | > 170 | 117 µM | – |
| CCC12C=CCN3CCC4(C(=C(C(=O)OC)C1)Nc1ccccc14)[C@H]32 (stereo not given in full) | > 120 | 5.25 µM | – |
| CCOC(=O)C1(C(=O)OCC)C=C(c2ccccc2)N(C2OC(COC(C)=O)C(OC(C)=O)C(OC(C)=O)C2OC(C)=O)C1=S (stereo not given) | > 200 | 24.5 µM | – |
| CCN(CC)CCOC(=O)c1cc2ccccc2n1-c1ccccc1 | > 200 | 79.4 µM | – |
| O=c1oc2cc(O)ccc2c(O)c1C(c1cccnc1)c1c(O)c2ccc(O)cc2oc1=O | – | – | inactive |

| Compound | EC50 [µM] | IC50 | outcome |
| --- | --- | --- | --- |
| O=C1CCC2(c3ccc(Cl)cc3)Nc3ccc(Cl)cc3N12 (stereo not given) | > 16.2 | > 16.2 µM | – |
| O=c1cc(NCC2CCCCC2)[nH]c(=O)[nH]1 | > 200 | > 200 µM | – |
| Cn1c(=O)cc(C=Nc2ccc(C(=O)O)cc2)c2ccccc21 | > 200 | 1.32 µM | – |
| CN1C(=O)/C(=C2\SC(=O)N(CN3CCOCC3)C2=O)c2cc(Br)ccc21 | > 200 | 26.3 µM | – |
| CCOC(=O)/C(C1=N[C@H](C(=O)OCC)CS1)=C(\O)c1ccccc1 | > 145 | > 145 µM | – |
| C/C(=C\CNc1nc(Cl)nc2nc[nH]c12)CO | > 200 | 148 µM | – |
| NCCCCCCn1c(-c2ccc(Br)cc2)csc1=Nc1ccccc1 | > 200 | 3.55 µM | – |
| COc1ccc2c(CCNC(C)=O)c(C(C)=O)[nH]c2c1 | – | – | inactive |
| COc1cc2c(cc1OC)C1Cc3cc(OC)c(OC)cc3N1CC2 (stereo not given) | > 29.5 | 9.12 µM | – |
| CCSc1cc(C(=O)OC)c2n(c1=O)CCCC2 | > 200 | > 200 µM | – |
| CO[C@H]1c2cccc3cccc(c23)[C@@H]1n1[nH]c(=O)n(C(C)(C)C)c1=O | > 200 | > 200 µM | – |
| COc1cc(CC(C)N[C@@H](C)c2ccccc2)cc(OC)c1 (stereo not given in full) | > 200 | 18.6 µM and 64.6 µM | – |
| O=[N+]([O-])c1ccc(Nc2nnc(-c3ccc(Cl)cc3Cl)s2)cc1 | – | – | inactive |
| O=C1NCCS(=O)(=O)N[C@@H](CC2=CC=CCC2)C(=O)N2CCCC12 (stereo not given in full) | > 708 | > 708 µM | – |
| CC(=O)NC1=NC(=O)/C(=C/c2ccc(/C=C3/C(=O)N=C(NC(C)=O)N3C)cc2)N1C | > 200 | 151 µM | – |
| COC(=O)c1ncn(C2CCCCC2)c1N | > 200 | > 200 µM | – |
| COc1ccc(-c2oc3c(CC(=O)O)cccc3c(=O)c2OC)cc1 | > 200 | 112 µM | – |
| COC(=O)C(=O)C(C(=O)C(=O)Nc1ccc([N+](=O)[O-])cc1[N+](=O)[O-])c1nc2ccc(Cl)cc2[nH]c1=O (stereo not given) | > 132 | > 132 µM | – |
| NCCNCCCCCCCCCCCCOS(=O)(=O)O | > 112 | > 112 µM | – |
| O=C(c1cc2ccccc2[nH]1)C(O)(c1cc2ccccc2[nH]1)c1cc2ccccc2[nH]1 | > 9.33 | > 9.33 µM | – |
| CC1(C)OC(=S)N(c2ccccc2)C12C=Cc1cc3ccccc3nc1S2 (stereo not given) | > 3.72 | 3.31 µM | – |
| CCOC(=O)/C(=C\c1cccc(C#N)c1)[Se]c1ccccc1 | > 52.5 | > 52.5 µM | – |

| Compound | EC50 [µM] | IC50 | outcome |
| --- | --- | --- | --- |
| CC(=O)Oc1ccc(/C=C/C(=O)OCCCOC(=O)/C=C/c2ccc(OC(C)=O)c(OC(C)=O)c2)cc1OC(C)=O | > 100 | > 100 µM | – |
| CCCCOC(=O)C1CSSCC(NC(C)=O)C(=O)N1 (stereo not given) | > 200 | 112 µM | – |
| CCOC(=O)c1ccc(CS(=O)(=O)c2ccccc2)cc1 | > 23.4 | > 23.4 µM | – |
| CCOC(=O)c1nn2c(C)nnc2s1 | – | – | inactive |
| Cn1c(=S)sc2nc3ccccc3n2c1=S | > 200 | 10.7 µM | – |
| CCOC(=O)c1sc2nc(SC)nc3c2c1N=CN3c1ccc(Br)cc1 | – | – | inactive |
| O=c1oc2ccccc2c2c1Sc1ccccc1N2 | > 51.3 | > 51.3 µM | – |
| Cc1ccccc1S(=O)(=O)OC1NS(=O)(=O)c2ccccc21 (stereo not given) | > 200 | > 200 µM | – |
| CC(OC(C)(C)C)C1NC(=O)C(CCCCNC(=O)OC(C)(C)C)NC(=O)C(Cc2c[nH]c3ccccc23)NC(=O)C(Cc2ccccc2)NC(=O)C2(CCCC2)NC(=O)C(Cc2ccccc2)NC1=O (stereo not given) (cyclo([Ac5c]FWK(Boc)T(tBu)F); configuration not given here) | > 100 | 18.6 µM | – |
| O=C(CSSCC(=O)Nc1ccc(Br)cc1)Nc1ccc(Br)cc1 | – | – | inactive |
| O=S1(=O)Cc2ccc3c4c2-c2c(ccc5ccc(c-4c25)CS(=O)(=O)C3)C1 | > 200 | 17 µM | – |
| COC(=O)C1=CON2C3CC4CC(C3)CC(C4)C12C (stereo not given) | > 200 | 135 µM | – |
| COc1cc(C2=NC(C(C)C)CO2)c(OC)c(OC)c1OC (stereo not given) | > 43.7 | > 43.7 µM | – |
| O=C1CCC(=O)c2sccc2N1 | > 1380 | > 1380 µM | – |
| c1ccc2c(c1)nn1c3ccc4nonc4c3[n-][n+]21 | – | – | inactive |
| CCC1(CCCC=C(c2cc(Cl)c(OC)c(C(=O)OC)c2)c2cc(Cl)c(OC)c(C(=O)OC)c2)OCCO1 | > 200 | 148 µM | – |
| O=C1CN(C(=O)C2CCCN2C(=O)C2CCCN2)C(=O)CN1 (stereo not given) | > 200 | > 200 µM | – |
| CNc1ncnc2c1cnn2CCCCO | > 200 | > 200 µM | – |
| OC1CC=C2CCN3Cc4cc5c(cc4C1C23)OCO5 (stereo not given) | – | – | inactive |
| O=C(CCCN1CCC(C(O)c2ccc(F)cc2)CC1)c1ccc(F)cc1 (stereo not given) | > 95.5 | 79.4 µM | – |
| CCOC(=O)C(Cl)(NC(=O)c1ccc(F)cc1)C(F)(F)F (stereo not given) | > 200 | > 200 µM | – |
